Assay results from ChEMBL document CHEMBL3217687, “Identification of multifunctional small molecule-based reversible monoamine oxidase inhibitors” (Medchemcomm, 2011).

Columns and labels:
Homo sapiens = organism: Homo sapiens; test: Selectivity index, ratio of Ki for human recombinant MAOA to Ki for human recombinant MAOB
[1] = target: T1, Amine oxidase [flavin-containing] A (Homo sapiens, UniProt P21397); test: Inhibition of human recombinant MAOA assessed as kynuramine conversion to 4-hydroxyquinoline after 20 mins by fluorescence assay
T1 sequence (P21397 whole entry): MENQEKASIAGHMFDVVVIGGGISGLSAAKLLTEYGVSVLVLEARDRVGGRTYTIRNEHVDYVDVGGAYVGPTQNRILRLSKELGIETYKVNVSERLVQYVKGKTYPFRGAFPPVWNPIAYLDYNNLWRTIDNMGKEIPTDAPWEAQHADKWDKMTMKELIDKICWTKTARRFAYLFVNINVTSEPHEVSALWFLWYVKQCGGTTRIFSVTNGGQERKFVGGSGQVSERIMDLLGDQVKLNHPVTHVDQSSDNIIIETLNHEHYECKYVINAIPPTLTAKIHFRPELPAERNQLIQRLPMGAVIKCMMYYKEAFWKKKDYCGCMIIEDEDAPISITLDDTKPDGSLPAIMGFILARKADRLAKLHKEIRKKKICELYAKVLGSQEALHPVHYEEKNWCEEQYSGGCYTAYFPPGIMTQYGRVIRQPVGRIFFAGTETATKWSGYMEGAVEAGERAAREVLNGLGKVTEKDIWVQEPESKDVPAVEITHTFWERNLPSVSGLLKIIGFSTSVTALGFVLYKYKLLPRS

[2] = target: T1, Amine oxidase [flavin-containing] A; test: Binding affinity to human recombinant MAOA
[3] = target: T2, Amine oxidase [flavin-containing] B (Homo sapiens, UniProt P27338); test: Inhibition of human recombinant MAOB assessed as kynuramine conversion to 4-hydroxyquinoline after 20 mins by fluorescence assay
T2 sequence (P27338 whole entry): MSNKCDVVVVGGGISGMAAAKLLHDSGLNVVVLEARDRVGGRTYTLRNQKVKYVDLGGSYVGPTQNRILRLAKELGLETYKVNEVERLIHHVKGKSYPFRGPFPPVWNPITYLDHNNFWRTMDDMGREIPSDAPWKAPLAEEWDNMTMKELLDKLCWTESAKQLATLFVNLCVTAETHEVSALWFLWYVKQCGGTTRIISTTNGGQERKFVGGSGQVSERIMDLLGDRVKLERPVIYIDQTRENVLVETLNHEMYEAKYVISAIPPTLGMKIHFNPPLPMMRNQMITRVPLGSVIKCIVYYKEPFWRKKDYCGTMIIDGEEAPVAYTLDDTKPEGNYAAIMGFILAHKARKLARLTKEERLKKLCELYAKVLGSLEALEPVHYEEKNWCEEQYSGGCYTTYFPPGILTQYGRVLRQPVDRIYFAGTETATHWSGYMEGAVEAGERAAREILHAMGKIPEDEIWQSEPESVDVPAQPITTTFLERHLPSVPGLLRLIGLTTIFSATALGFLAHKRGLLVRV

[4] = target: T2, Amine oxidase [flavin-containing] B; test: Binding affinity to human recombinant MAOB

Ratio Ki (Homo sapiens) | IC50 [1] | Ki [2] | IC50 [3] | Ki [4] | SMILES
0.06 | 20 µM | 5.7 µM | 182 µM | 97 µM | c1ccc(NCc2ccccn2)cc1
2.8 | 0.36 µM | 0.1 µM | 0.068 µM | 0.04 µM | CN(C)c1ccc(/N=C/c2ccccn2)cc1
